The values that follow come from paper PMC11636681, “Pharmacokinetics and pharmacodynamics of antibacterial peptide NZX in Staphylococcus aureus mastitis mouse model” (Applied Microbiology and Biotechnology, 2024).

Marks after values point to notes of the source that are not given here. Positions of bridges follow the written chain, without caps; N, C: chain ends. Residues, ends and D or L forms follow the SMILES beside them.

Data set [1] in a line: Stability of NZX in milk. In kind it is in vitro ADME. Particulars: 100 μg/mL in milk, 37 °C, SPE then HPLC–UV 280 nm, mean peak area / initial value, read-out: retention rate in milk. The protocol: A 0.5 g of mammary tissue or milk were weighed, homogenized, and transferred to a 10 mL polypropylene centrifuge tube, respectively, extracted sequentially by adding into a 3 mL of 0.1 M of McFarland buffer and 1% trichloroacetic acid (TCA), and cleaned by a C18 solid-phase extraction (SPE) cartridge (Oasis MAX 3 cc 60 mg and Oasis HLB 3 cc 60 mg, respectively, Waters, USA). Afterwards, a 2 mL of 45% acetonitrile with 2% formic acid and 3 mL of 45% acetonitrile were used to elute the columns, respectively, the collected eluents were freeze-dried and dissolved in 200 µL of deionized water and filtered by a […] sterile filter membrane before the analysis of high-performance liquid chromatography-ultraviolet (HPLC–UV). The HPLC–UV with a C18 reverse-phase column (ZORBAX Eclipse Plus C18 4.6 mm × 250 mm, 5 µm) conditions for detecting NZX were as follows: the mobile phase consisted of A: 0.1% trifluoroacetate […] in acetonitrile and B: 0.1%TFA in water; the injection volume was 40 μL; the wavelength of UV detector was 280 nm; flow rate was 1.0 mL/min; the column temperature was 35 °C, and the elution was conducted with a linear gradient of 20–45% mobile phase A for 16 min. The linear relationship, limits of detection (LOD), limits of quantitation (LOQ), accuracy and precision were determined by adding the known concentrations of NZX into the extracted blank matrix of mammary gland. Each concentration was conducted three times.
A 100 μg/mL of NZX was suspended in mammary gland tissue homogenate or milk, respectively, and then incubated at 37 °C for 0, 8, 16 and 24 h, respectively. Afterwards, samples were pretreated and quantified as the above methods. The results were expressed as a ratio of the mean peak area measured at different times divided by the mean value of the initial value.

In data set [2] the test system is three S. aureus strains. The experiment in a line: Mouse mastitis model, histopathological analysis and scoring of mammary tissues. In kind it is in vivo. The settings on record: mice infected with the three S. aureus strains, 100 μg/gland. The source says: The 7 to 8-weeks old ICR mice (80 females, 40 males) were housed in independent ventilated cages, and feed with autoclaved laboratory food and water. Female mice in heat were put into the cage of males (females:males, 2:1) overnight and checked for vaginal plugs at the following morning to induce pregnancy. ICR-lactating mice were used at 6 to 8 days after the birth of the offspring. The mouse mastitis model was established as previously described (Li et al. [2017]). Mice were randomly divided into nine groups: NC group (uninfected group), PC group (infected but without treatment), NZX groups (25, 50, 100, 200 and 400 μg/gland, respectively), lincomycin group (100 μg/gland), and ceftiofur group (100 μg/gland). Each experimental group has six independent experiments with three mice. Specially, the pups were removed 1 h before the intramammary injection of both L4 (on the left) and R4 (on the right) abdominal mammal glands. […]
After mouse sacrifice, one part of mammary tissue was taken for bacterial count, and the other part was used for the histopathological analysis. […] The bacterial number on each plate was counted and the results were expressed as Log10 CFU per gram of mammary tissues. […]

For data set [3], the system named is S. aureus E48. Particulars: 1 × 10^5 CFU/mL, 16–18 h, 37 °C, value marked a, already published, ref Zheng et al. [2022]; cited from earlier work. The source says:
Table 1 The MICs, MBCs and MPCs of NZX and antibiotics against S. aureus strains (μM) | column: S. aureus E48 / MIC

Take `CC[C@H](C)[C@@H]1NC(=O)[C@H](CO)NC(=O)[C@H](CCCCN)NC(=O)[C@@H]2CSSC[C@@H](C(=O)N[C@@H](Cc3ccc(O)cc3)C(=O)O)NC(=O)[C@H](CCCCN)NC(=O)[C@@H]3CSSC[C@H](NC(=O)[C@H](CCC(N)=O)NC(=O)[C@H]([C@@H](C)CC)NC(=O)[C@H](CC(=O)O)NC(=O)[C@H](CC(=O)O)NC(=O)[C@H](CCC(=O)O)NC(=O)[C@H](CO)NC(=O)[C@H](Cc4c[nH]c5ccccc45)NC(=O)[C@@H]4CCCN4C(=O)CNC(=O)[C@H](CC(N)=O)NC(=O)[C@@H](NC(=O)CNC(=O)[C@H](Cc4ccccc4)NC(=O)CN)CSSC[C@H](NC(=O)[C@H](Cc4ccc(O)cc4)NC(=O)CNC(=O)CNC(=O)[C@H](CCCCN)NC(=O)[C@H](Cc4ccc(O)cc4)NC(=O)CNC(=O)[C@H](CCCCN)NC1=O)C(=O)N[C@@H](C)C(=O)N[C@@H](CCCNC(=N)N)C(=O)NCC(=O)NCC(=O)N[C@@H](Cc1ccccc1)C(=O)N[C@@H](C(C)C)C(=O)N3)C(=O)N[C@@H](Cc1c[nH]cn1)C(=O)N[C@@H](CC(N)=O)C(=O)N[C@@H](Cc1c[nH]cn1)C(=O)N2` [NZX] (H-GFGCNGPWSEDDIQCHNHCKSIKGYKGGYCARGGFVCKCY-OH; disulfide 4-30, 15-37, 19-39; N-terminus and C-terminus assumed): in data set [1] (8 h), the remaining at 8 h, 100 μg/mL amounted to 103%. Besides, the remaining at 16 h, 100 μg/mL in data set [1] (16 h) is 91.8%. The remaining at 24 h, 100 μg/mL in data set [1] (24 h) turned out to be 85.4%. Besides, in data set [2] (24 h after treatment), the “inflammatory symptoms of mammary tissue (H&E histology)” value is given as “obviously improved”. In addition, the “pathological scores of mammary tissues” value in data set [2] (compared with the PC group) was “significantly decreased”. In data set [3], the MIC was 0.23^a μM.
